Data reported in PubChem BioAssay (NCI).
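These data come from cells grown in 96-well plates and exposed to compound for 48 hours at five concentrations. TGI marks complete inhibition of growth.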

How the values were obtained:
Experiment in all cases: NCI anticancer screen, dose series, 48 h
786-0 renal = tested on: 786-0 renal
A498 renal = tested on: A498 renal
A549 NSCLC = tested on: A549 NSCLC
ACHN renal = tested on: ACHN renal
CAKI-1 renal = tested on: CAKI-1 renal
CCRF-CEM leukemia = tested on: CCRF-CEM leukemia
COLO 205 colon = tested on: COLO 205 colon
DLD-1 colon = tested on: DLD-1 colon
DMS 114 small cell lung = tested on: DMS 114 small cell lung
DMS 273 small cell lung = tested on: DMS 273 small cell lung
EKVX NSCLC = tested on: EKVX NSCLC
HCC-2998 colon = tested on: HCC-2998 colon
HCT-116 colon = tested on: HCT-116 colon
HCT-15 colon = tested on: HCT-15 colon
HL-60(TB) leukemia = tested on: HL-60(TB) leukemia
HOP-18 NSCLC = tested on: HOP-18 NSCLC
HOP-62 NSCLC = tested on: HOP-62 NSCLC
HOP-92 NSCLC = tested on: HOP-92 NSCLC
HT29 colon = tested on: HT29 colon
IGROV1 ovarian = tested on: IGROV1 ovarian
K-562 leukemia = tested on: K-562 leukemia
KM12 colon = tested on: KM12 colon
KM20L2 colon = tested on: KM20L2 colon
LOX IMVI melanoma = tested on: LOX IMVI melanoma
LXFL 529 NSCLC = tested on: LXFL 529 NSCLC
M14 melanoma = tested on: M14 melanoma
M19-MEL melanoma = tested on: M19-MEL melanoma
MALME-3M melanoma = tested on: MALME-3M melanoma
MOLT-4 leukemia = tested on: MOLT-4 leukemia
NCI-H226 lung = tested on: NCI-H226 lung
NCI-H23 lung = tested on: NCI-H23 lung
NCI-H460 lung = tested on: NCI-H460 lung
NCI-H522 lung = tested on: NCI-H522 lung
OVCAR-3 ovarian = tested on: OVCAR-3 ovarian
OVCAR-4 ovarian = tested on: OVCAR-4 ovarian
OVCAR-5 ovarian = tested on: OVCAR-5 ovarian
OVCAR-8 ovarian = tested on: OVCAR-8 ovarian
RXF 393 renal = tested on: RXF 393 renal
SF-268 CNS = tested on: SF-268 CNS
SF-295 CNS = tested on: SF-295 CNS
SF-539 CNS = tested on: SF-539 CNS
SK-MEL-2 melanoma = tested on: SK-MEL-2 melanoma
SK-MEL-28 melanoma = tested on: SK-MEL-28 melanoma
SK-MEL-5 melanoma = tested on: SK-MEL-5 melanoma
SK-OV-3 ovarian = tested on: SK-OV-3 ovarian
SN12C renal = tested on: SN12C renal
SNB-19 CNS = tested on: SNB-19 CNS
SNB-75 CNS = tested on: SNB-75 CNS
SNB-78 CNS = tested on: SNB-78 CNS
SW-620 colon = tested on: SW-620 colon
TK-10 renal = tested on: TK-10 renal
U251 CNS = tested on: U251 CNS
UACC-257 melanoma = tested on: UACC-257 melanoma
UACC-62 melanoma = tested on: UACC-62 melanoma
UO-31 renal = tested on: UO-31 renal
XF 498 CNS = tested on: XF 498 CNS
RPMI-8226 leukemia = tested on: RPMI-8226 leukemia

Measured: TGI

O=[N+]([O-])C(/C=N/Nc1ccccc1)/C=N/Nc1ccccc1
not listed: RPMI-8226 leukemia
> 100 µM: all other assays above

NC(=O)c1ccccc1[N+](=O)[O-]
not listed: CCRF-CEM leukemia | DLD-1 colon | HL-60(TB) leukemia | KM12 colon | LOX IMVI melanoma | LXFL 529 NSCLC | M14 melanoma | NCI-H226 lung | NCI-H23 lung | NCI-H460 lung | NCI-H522 lung | OVCAR-4 ovarian | OVCAR-5 ovarian | RXF 393 renal | SF-295 CNS | SK-MEL-2 melanoma | SK-OV-3 ovarian | TK-10 renal | UACC-257 melanoma | UO-31 renal
> 100 µM: all other assays above

CC(=O)Nc1c(Nc2ccccc2)[nH]c(C)nc1=S
not listed: A498 renal | HCT-116 colon | HOP-18 NSCLC | HT29 colon | M19-MEL melanoma | NCI-H226 lung | SF-539 CNS | U251 CNS
> 100 µM: all other assays above
